In patent US20080200539A1, “Topical antifungal treatment” (priority 2002, published 2008):

Experiments:
[1] = tested on: superficial fungal infections of the skin; details: used alone; previous clinical studies by others; cited from earlier work
[2] = pH of triacetin when applied to the skin; format: physicochemical
Excerpt: Triacetin also acts to decrease the pH of the application area It is known that fungus like moist areas and thrive in environments with a normal acidity, pH 6.5 to 7.2. Yeasts die in low pH environments, i.e. pH levels in the range of 4.5 or less, and infectious fungi are adversely affected in low pH environments. Triacetin has a pH of 4.0 when applied to the skin, and effectively lowers the pH of the application area. As triacetin breaks down after application, it produces acetic acid, a weak antifungal agent. Triacetin also acts to lower the moisture content in the application area, which aids in creating an adverse environment for fungal growth. In high concentrations, such as in this preparation, triacetin reduces the secretion of moisture during perspiration, due to an astringent effect, or antihyperhydrosis effect. Triacetin also acts to reduce moisture by bonding with the moisture available in the affected area, reducing the opportunity or availability of the moisture to be utilized by the fungal cells. After application, triacetin also coats the application area, saturating the epidermis and limiting moisture available for fungal growth. Finally, triacetin can also be used for nutritional support whether administered orally, topically or intravenously, to restore healthy, normal skin as is seen with the topical administration of this preparation.

[3] = Topical vitamin A on surgical incision area in post surgical patients; format: in vivo; details: 50,000 international units applied topically
Excerpt: Vitamin A is a fat soluble vitamin that is used in a wide dosage range from 5 to 50,000 I.U. to assist in healing. […] Vitamin A is also important for nutritional support. Vitamin D is also a fat soluble vitamin utilized in nutritional support. Vitamin D is not recommended in doses of over 6000 International Units per day. Topical applications with vitamin A and D have been used for years to enhance healing and repair damaged skin.

[4] = tested on: Trichophyton rubrum; details: cited from earlier work
[5] = tested on: Trichophyton mentagrophytes; details: cited from earlier work
[6] = tested on: Aspergillis niger; details: cited from earlier work
[7] = tested on: Trichophyton tonsurans; details: cited from earlier work
[8] = tested on: Microsporum audouini; details: cited from earlier work
[9] = tested on: Microsporum japonicum; details: cited from earlier work
[10] = tested on: Microsporum gypseum; details: cited from earlier work
[11] = tested on: Microsporum canis; details: cited from earlier work
[12] = tested on: Trichophyton schoenleinii; details: cited from earlier work
[13] = tested on: Epidermophytom flocossum; details: cited from earlier work
[14] = tested on: nails infected by dermatophytes; details: cited from earlier work

CC(=O)OCC(COC(C)=O)OC(C)=O [Triacetin]
effectiveness as an antifungal agent [1]: only mildly effective
pH [2]: 4.0

Vitamin A
healing time [3]: improved healing time

Cc1cccc(N(C)C(=S)Oc2ccc3ccccc3c2)c1 [tolnaftate]
in vitro activity [4]: fungistatic or fungicidal
in vitro activity [5]: fungistatic or fungicidal
activity against Aspergillis niger [6]: varies from one strain to another
in vitro activity [7]: fungistatic or fungicidal
in vitro activity [8]: fungistatic or fungicidal
in vitro activity [9]: fungistatic or fungicidal
in vitro activity [10]: fungistatic or fungicidal
in vitro activity [11]: fungistatic or fungicidal
in vitro activity [12]: fungistatic or fungicidal
in vitro activity [13]: fungistatic or fungicidal

CN(C/C=C/C#CC(C)(C)C)Cc1cccc2ccccc12 [terbinafine]
duration of continuous daily intake needed to show some efficacy [14]: three months or more
